The values that follow are results of earlier work, collected in patent US11503831B2, “Arthropoda repellent composition” (SanderStrothmann GmbH, priority 2019, dated 2022).

For the data set the following is noted: in vivo.

Turning to `CCN(CC)C(=O)c1cccc(C)c1` [N,N-diethyl toluamide, N,N′-diethyl toluamide], the “Share of topically applied dose absorbed by the skin” value is on record as “approximately 50%” and the “Time to peak plasma levels” value was 1 h.
